From patent publication US20080312255A1 (ASTRAZENECA AB, priority 2007, published 2008)

Each compound was assayed against S. aureus GyrB ATPase (Staphylococcus aureus, UniProt P0A0K8) (assay: S. aureus GyrB ATPase inhibition (ammonium molybdate/malachite green phosphate detection)). Conditions: compound concentration of 1 μM.
Assay type: biochemical
Description: S. aureus GyrB ATPase Inhibition Activity: Compounds may be tested for inhibition of S. aureus GyrB ATPase activity using an ammonium molybdate/malachite green-based phosphate detection assay (Lanzetta, P. A., L. J. Alvarez, P. S. Reinach, and O. A. Candia, 1979, 100: 95-97). Assays can be performed in multiwell plates in 30 μl reactions containing: 50 mM Hepes buffer pH 7.5, 75 mM ammonium acetate, 8.0 mM magnesium chloride, 0.5 mM ethylenediaminetetraacetic acid, 5% glycerol, 1.0 mM 1,4-Dithio-DL-threitol, 200 nM bovine serum albumin, 1.0 μg/ml sheared salmon sperm DNA, 250 pM E. coli GyrA, 250 pM S. aureus GyrB, 250 μM ATP, and compound in dimethylsulfoxide. Reactions can be quenched with […] of ammonium molybdate/malachite green detection reagent containing 1.2 mM malachite green hydrochloride, 8.5 mM ammonium molybdate tetrahydrate, and 1 M hydrochloric acid. Plates can be read in an absorbance plate reader at 650 nm and percent inhibition values can be calculated using dimethylsulfoxide (2%)-containing reactions as 0% inhibition and EDTA-containing ([…]) reactions as 100% inhibition controls. An IC50 measurement of compound potency for each compound can be determined from reactions performed in the presence of 10 different compound concentrations.
Compounds of the invention were tested in an assay substantially similar to the assay described above for measuring the inhibition of S. aureus GyrB ATPase. Percent inhibition of S. aureus GyrB ATPase at a compound concentration of 1 μM (unless otherwise noted) is disclosed in the following table: […]

Chain of S. aureus GyrB ATPase (P0AES4 whole entry): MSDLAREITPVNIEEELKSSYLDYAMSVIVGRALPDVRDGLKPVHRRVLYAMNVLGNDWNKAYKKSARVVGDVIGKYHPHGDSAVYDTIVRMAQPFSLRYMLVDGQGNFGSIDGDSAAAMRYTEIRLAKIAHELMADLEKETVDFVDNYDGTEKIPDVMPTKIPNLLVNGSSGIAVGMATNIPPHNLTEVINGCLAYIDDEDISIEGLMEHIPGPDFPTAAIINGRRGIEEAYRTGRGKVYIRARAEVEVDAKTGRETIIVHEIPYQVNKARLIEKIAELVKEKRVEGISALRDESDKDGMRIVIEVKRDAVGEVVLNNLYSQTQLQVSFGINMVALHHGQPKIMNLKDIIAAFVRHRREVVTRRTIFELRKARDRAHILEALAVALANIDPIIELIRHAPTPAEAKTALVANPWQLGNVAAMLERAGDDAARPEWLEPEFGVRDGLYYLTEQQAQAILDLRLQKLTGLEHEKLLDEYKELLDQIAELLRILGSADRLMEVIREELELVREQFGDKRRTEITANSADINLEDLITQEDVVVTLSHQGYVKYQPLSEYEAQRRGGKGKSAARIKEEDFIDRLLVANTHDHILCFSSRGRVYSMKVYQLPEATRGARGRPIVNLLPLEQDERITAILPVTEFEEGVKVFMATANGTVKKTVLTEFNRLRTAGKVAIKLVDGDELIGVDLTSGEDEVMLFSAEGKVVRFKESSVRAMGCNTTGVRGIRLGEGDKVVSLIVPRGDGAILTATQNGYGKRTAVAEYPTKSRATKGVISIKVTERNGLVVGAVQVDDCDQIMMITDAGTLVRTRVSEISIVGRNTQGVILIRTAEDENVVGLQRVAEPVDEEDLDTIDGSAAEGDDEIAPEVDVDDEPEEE
Chain of S. aureus GyrB ATPase (P0A0K8 whole entry): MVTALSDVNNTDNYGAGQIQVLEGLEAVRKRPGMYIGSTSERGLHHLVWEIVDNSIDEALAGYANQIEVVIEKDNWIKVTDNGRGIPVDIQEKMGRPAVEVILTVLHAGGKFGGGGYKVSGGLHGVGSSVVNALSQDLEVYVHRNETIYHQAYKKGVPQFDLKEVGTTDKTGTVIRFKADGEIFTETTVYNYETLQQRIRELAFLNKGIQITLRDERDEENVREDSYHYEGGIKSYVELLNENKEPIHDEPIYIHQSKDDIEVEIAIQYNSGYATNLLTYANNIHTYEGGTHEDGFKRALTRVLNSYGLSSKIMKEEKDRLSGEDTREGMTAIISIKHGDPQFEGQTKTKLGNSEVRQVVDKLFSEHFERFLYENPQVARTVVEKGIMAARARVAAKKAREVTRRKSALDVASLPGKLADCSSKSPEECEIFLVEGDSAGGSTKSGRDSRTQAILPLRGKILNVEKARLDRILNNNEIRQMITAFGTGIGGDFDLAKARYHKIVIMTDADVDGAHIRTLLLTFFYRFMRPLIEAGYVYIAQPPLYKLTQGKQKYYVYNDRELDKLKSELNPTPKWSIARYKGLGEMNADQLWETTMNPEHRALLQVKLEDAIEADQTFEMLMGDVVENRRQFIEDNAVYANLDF

| SMILES | inhibition at 1 µM [%] |
| --- | --- |
| COCCn1ccnc1-c1nc(N2CC[C@@H](NC(=O)c3[nH]c(C)c(Cl)c3Cl)[C@@H](F)C2)sc1C(=O)O [Example 26, 2-((3S,4R)-4-{[(3,4-Dichloro-5-methyl-1H-pyrrol-2-yl)carbonyl]amino}-3-fluoropiperidin-1-yl)-4-[1-(2-methoxyethyl)-1H-imidazol-2-yl]-1,3-thiazole-5-carboxylic acid] | 97.4 |
| CO[C@H]1CN(c2nc(-c3ncnn3C)c(C(=O)O)s2)CC[C@H]1NC(=O)c1[nH]c(C)c(Cl)c1Cl [Example 27, 2-((3S,4R)-4-{[(3,4-Dichloro-5-methyl-1H-pyrrol-2-yl)carbonyl]amino}-3-methoxypiperidin-1-yl)-4-(1-methyl-1H-1,2,4-triazol-5-yl)-1,3-thiazole-5-carboxylic acid] | 99.9 |
| Cc1[nH]c(C(=O)N[C@@H]2CCN(c3nc(-c4ncnn4C)c(C(=O)O)s3)C[C@@H]2F)c(Cl)c1Cl [Example 28, 2-((3S,4R)-4-{[(3,4-Dichloro-5-methyl-1H-pyrrol-2-yl)carbonyl]amino}-3-fluoropiperidin-1-yl)-4-(1-methyl-1H-1,2,4-triazol-5-yl)-1,3-thiazole-5-carboxylic acid] | 87.1 |
| CO[C@H]1CN(c2nc(-c3ncnn3C)c(C(=O)O)s2)CC[C@H]1NC(=O)c1[nH]c(C)c(C#N)c1Cl [Example 29, 2-((3S,4R)-4-{[(3-Chloro-4-cyano-5-methyl-1H-pyrrol-2-yl)carbonyl]amino}-3-methoxypiperidin-1-yl)-4-(1-methyl-1H-1,2,4-triazol-5-yl)-1,3-thiazole-5-carboxylic acid] | 101 |
| COCCn1ccnc1-c1nc(N2CC[C@@H](NC(=O)c3[nH]c(C)c(C#N)c3Cl)[C@@H](OC)C2)sc1C(=O)O [Example 30, 2-((3S,4R)-4-{[(3-Chloro-4-cyano-5-methyl-1H-pyrrol-2-yl)carbonyl]amino}-3-methoxypiperidin-1-yl)-4-[1-(2-methoxyethyl)-1H-imidazol-2-yl]-1,3-thiazole-5-carboxylic acid] | 102 |
| CO[C@H]1CN(c2nc(-c3ncnn3C)c(C(=O)O)s2)CC[C@H]1NC(=O)c1cc(C#N)c(C)[nH]1 [Example 31, 2-((3S,4R)-4-{[(4-Cyano-5-methyl-1H-pyrrol-2-yl)carbonyl]amino}-3-methoxypiperidin-1-yl)-4-(1-methyl-1H-1,2,4-triazol-5-yl)-1,3-thiazole-5-carboxylic acid] | 99.3 |
| CO[C@H]1CN(c2nc(-c3nc(C)c(C)n3C)c(C(=O)O)s2)CC[C@H]1NC(=O)c1[nH]c(C)c(Cl)c1Cl [Example 32, 2-((3S,4R)-4-{[(3,4-Dichloro-5-methyl-1H-pyrrol-2-yl)carbonyl]amino}-3-methoxypiperidin-1-yl)-4-(1,4,5-trimethyl-1H-imidazol-2-yl)-1,3-thiazole-5-carboxylic acid] | 99.9 |
| CO[C@H]1CN(c2nc(-c3csc(N)n3)c(C(=O)O)s2)CC[C@H]1NC(=O)c1[nH]c(C)c(Cl)c1Cl [Example 33, 2′-Amino-2-((3S,4R)-4-{[(3,4-dichloro-5-methyl-1H-pyrrol-2-yl)carbonyl]amino}-3-methoxypiperidin-1-yl)-4,4′-bi-1,3-thiazole-5-carboxylic acid] | 101 |
| CNc1nc(-c2nc(N3CC[C@@H](NC(=O)c4[nH]c(C)c(Cl)c4Cl)[C@@H](OC)C3)sc2C(=O)O)cs1 [Example 34, 2-((3S,4R)-4-{[(3,4-Dichloro-5-methyl-1H-pyrrol-2-yl)carbonyl]amino}-3-methoxypiperidin-1-yl)-2′-(methylamino)-4,4′-bi-1,3-thiazole-5-carboxylic acid] | 99.6 |
| CO[C@H]1CN(c2nc(-c3csc(N(C)C)n3)c(C(=O)O)s2)CC[C@H]1NC(=O)c1[nH]c(C)c(Cl)c1Cl [Example 35, 2-((3S,4R)-4-{[(3,4-Dichloro-5-methyl-1H-pyrrol-2-yl)carbonyl]amino}-3-methoxypiperidin-1-yl)-2′-(dimethylamino)-4,4′-bi-1,3-thiazole-5-carboxylic acid] | 96.6 |
| Cc1[nH]c(C(=O)N[C@@H]2CCN(c3nc(-c4csc(N)n4)c(C(=O)O)s3)C[C@@H]2F)c(Cl)c1Cl [Example 36, 2′-Amino-2-((3S,4R)-4-{[(3,4-dichloro-5-methyl-1H-pyrrol-2-yl)carbonyl]amino}-3-fluoropiperidin-1-yl)-4,4′-bi-1,3-thiazole-5-carboxylic acid] | 99.6 |
| CNc1nc(-c2nc(N3CC[C@@H](NC(=O)c4[nH]c(C)c(Cl)c4Cl)[C@@H](F)C3)sc2C(=O)O)cs1 [Example 37, 2-((3S,4R)-4-{[(3,4-Dichloro-5-methyl-1H-pyrrol-2-yl)carbonyl]amino}-3-fluoropiperidin-1-yl)-2′-(methylamino)-4,4′-bi-1,3-thiazole-5-carboxylic acid] | 101 |
| Cc1[nH]c(C(=O)N[C@@H]2CCN(c3nc(-c4csc(N(C)C)n4)c(C(=O)O)s3)C[C@@H]2F)c(Cl)c1Cl [Example 38, 2-((3S,4R)-4-{[(3,4-Dichloro-5-methyl-1H-pyrrol-2-yl)carbonyl]amino}-3-fluoropiperidin-1-yl)-2′-(dimethylamino)-4,4′-bi-1,3-thiazole-5-carboxylic acid] | 97.3 |
| Cc1[nH]c(C(=O)N[C@@H]2CCN(c3nc(-c4nccn4C)c(C(=O)O)s3)C[C@@H]2F)c(Cl)c1Cl [Example 39, 2-((3S,4R)-4-{[(3,4-Dichloro-5-methyl-1H-pyrrol-2-yl)carbonyl]amino}-3-fluoropiperidin-1-yl)-4-(1-methyl-1H-imidazol-2-yl)-1,3-thiazole-5-carboxylic acid] | 101 |
| CO[C@H]1CN(c2nc(-c3cn(C)cn3)c(C(=O)O)s2)CC[C@H]1NC(=O)c1[nH]c(C)c(Cl)c1Cl [Example 40, 2-((3S,4R)-4-{[(3,4-Dichloro-5-methyl-1H-pyrrol-2-yl)carbonyl]amino}-3-methoxypiperidin-1-yl)-4-(1-methyl-1H-imidazol-4-yl)-1,3-thiazole-5-carboxylic acid] | 101 |
| Cc1[nH]c(C(=O)N[C@@H]2CCN(c3nc(-c4cn(C)cn4)c(C(=O)O)s3)C[C@@H]2F)c(Cl)c1Cl [Example 41, 2-((3S,4R)-4-{[(3,4-Dichloro-5-methyl-1H-pyrrol-2-yl)carbonyl]amino}-3-fluoropiperidin-1-yl)-4-(1-methyl-1H-imidazol-4-yl)-1,3-thiazole-5-carboxylic acid] | 104 |
| COc1ccnc(-c2nc(N3CC[C@@H](NC(=O)c4[nH]c(C)c(Cl)c4Cl)[C@@H](OC)C3)sc2C(=O)O)n1 [Example 42, 2-((3S,4R)-4-{[(3,4-Dichloro-5-methyl-1H-pyrrol-2-yl)carbonyl]amino}-3-methoxypiperidin-1-yl)-4-(4-methoxypyrimidin-2-yl)-1,3-thiazole-5-carboxylic acid] | 99.9 |
| CCOC(=O)c1sc(N2CC[C@@H](NC(=O)c3[nH]c(C)c(Cl)c3Cl)[C@@H](OC)C2)nc1-c1ncccn1 [Example 43, Ethyl 2-((3S,4R)-4-{[(3,4-dichloro-5-methyl-1H-pyrrol-2-yl)carbonyl]amino}-3-methoxypiperidin-1-yl)-4-pyrimidin-2-yl-1,3-thiazole-5-carboxylate] | 102 |
| COC(=O)c1sc(N2CC[C@@H](NC(=O)c3[nH]c(C)c(Cl)c3Cl)[C@@H](OC)C2)nc1-c1nccs1 [Example 44] | 99.6 |
| CCOC(=O)c1sc(N2CC[C@@H](NC(=O)c3[nH]c(C)c(Cl)c3Cl)[C@@H](F)C2)nc1-c1ncccn1 [Example 45] | 100 |
| CCOC(=O)c1sc(N2CC[C@@H](NC(=O)c3[nH]c(C)c(Cl)c3Cl)[C@@H](F)C2)nc1-c1ccncn1 [Example 46] | 102 |
| COC(=O)c1sc(N2CC[C@@H](NC(=O)c3[nH]c(C)c(Cl)c3Cl)[C@@H](F)C2)nc1-c1nccs1 [Example 47] | 101 |
| CCOC(=O)c1sc(N2CC[C@@H](NC(=O)c3[nH]c(C)c(Cl)c3Cl)[C@@H](OC)C2)nc1-c1ccccn1 [Example 48] | 100 |
| CCOC(=O)c1sc(N2CC[C@@H](NC(=O)c3[nH]c(C)c(Cl)c3Cl)[C@@H](F)C2)nc1-c1ccccn1 [Example 49] | 112 |
| CCOC(=O)c1sc(N2CC[C@@H](NC(=O)c3[nH]c(C)c(Cl)c3Cl)[C@@H](OC)C2)nc1-c1cc(N(C)C)nc(N(C)C)n1 [Example 50] | 97 |
| CCOC(=O)c1sc(N2CC[C@@H](NC(=O)c3[nH]c(C)c(Cl)c3Cl)[C@@H](OC)C2)nc1-c1nc(OC)cc(OC)n1 [Example 52] | 101 |
| CCOC(=O)c1sc(N2CC[C@@H](NC(=O)c3[nH]c(C)c(Cl)c3Cl)[C@@H](OC)C2)nc1-c1cnccn1 [Example 53] | 100 |
| CCOC(=O)c1sc(N2CC[C@@H](NC(=O)c3[nH]c(C)c(Cl)c3Cl)[C@@H](OC)C2)nc1-c1nc2ccccc2s1 [Example 54] | 97.8 |
| CCOC(=O)c1sc(N2CC[C@@H](NC(=O)c3[nH]c(C)c(Cl)c3Cl)[C@@H](F)C2)nc1-c1cnccn1 [Example 55] | 97.9 |
| CCOC(=O)c1sc(N2CC[C@@H](NC(=O)c3[nH]c(C)c(Cl)c3Cl)[C@@H](F)C2)nc1-c1nc2ccccc2s1 [Example 56] | 93.9 |
